Results taken from US20160009693A1, “HERBICIDAL COMPOUNDS” (SYNGENTA LIMITED, priority 2013, published 2016).

Experiments:
Type in all cases: in vivo
Settings in all cases: applied at 1000 g/h, evaluated after 13 days
[1] = tested on: Alopecurus myosuroides (ALOMY); assay: Herbicidal glasshouse test, pre-emergence, ALOMY
Setaria faberi (SETFA) [2] = assay: Herbicidal glasshouse test, pre-emergence, SETFA
[3] = tested on: Echinochloa crus-galli (ECHCG); assay: Herbicidal glasshouse test, pre-emergence, ECHCG
Method in brief: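 Echinochloa crus-galli seeds were sown in standard soil in pots and grown for one day in a glasshouse at 24/16° C. day/night, 14 hours light and 65% humidity. Pre-emergence spraying used an aqueous solution of the active ingredient in acetone/water (50:50) with 0.5% Tween 20. Damage was scored after 13 days on a five point scale.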

Solanum nigrum (SOLNI) [4] = assay: Herbicidal glasshouse test, pre-emergence, SOLNI
Method in brief: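 Seeds of Solanum nigrum were sown in pots of standard soil and kept one day in a glasshouse at 24/16° C. day/night, 14 hours light and 65% humidity. For the pre-emergence treatment they were then sprayed with an aqueous solution of the active ingredient formulated in acetone/water (50:50) containing 0.5% Tween 20. Plant damage was rated after 13 days.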

[5] = tested on: Amaranthus retoflexus (AMARE); assay: Herbicidal glasshouse test, pre-emergence, AMARE
Method in brief: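 Amaranthus retoflexus seeds were sown in pots of standard soil and kept one day in a glasshouse at 24/16° C. (day/night), 14 hours light and 65% humidity. They were then sprayed pre-emergence with the active ingredient in acetone/water (50:50) containing 0.5% Tween 20. Plants grew under the same conditions, watered twice daily, and percentage damage was scored after 13 days.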

[6] = tested on: Ipomoea hederacea (IPOHE); assay: Herbicidal glasshouse test, pre-emergence, IPOHE
[7] = tested on: Alopecurus myosuroides (ALOMY); assay: Herbicidal glasshouse test, post-emergence, ALOMY
Setaria faberi (SETFA) [8] = assay: Herbicidal glasshouse test, post-emergence, SETFA
Method in brief: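 Setaria faberi seeds were sown in standard soil in pots and grown for 8 days in a glasshouse at 24/16° C. day/night, 14 hours light and 65% humidity. The seedlings were then sprayed post-emergence with the active ingredient in acetone/water (50:50) containing 0.5% Tween 20. Afterwards they were kept under the same conditions, watered twice daily, and scored for percentage damage on a five point scale.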

[9] = tested on: Echinochloa crus-galli (ECHCG); assay: Herbicidal glasshouse test, post-emergence, ECHCG
Method in brief: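 Echinochloa crus-galli (ECHCG) seeds were sown in standard soil in pots and grown for 8 days in a glasshouse at 24/16° C. day/night, 14 hours light and 65% humidity. The young plants were then sprayed post-emergence with the active ingredient in acetone / water (50:50) containing 0.5% Tween 20. Damage was scored after 13 days.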

Solanum nigrum (SOLNI) [10] = assay: Herbicidal glasshouse test, post-emergence, SOLNI
[11] = tested on: Amaranthus retoflexus (AMARE); assay: Herbicidal glasshouse test, post-emergence, AMARE
Method in brief: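 Amaranthus retoflexus (AMARE) seeds were sown in pots of standard soil and grown in a glasshouse at 24/16° C. day/night, 14 hours light and 65% humidity for 8 days. The plants were then sprayed post-emergence with an aqueous solution of the active ingredient in acetone/water (50:50) with 0.5% Tween 20. Damage was scored after 13 days.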

[12] = tested on: Ipomoea hederacea (IPOHE); assay: Herbicidal glasshouse test, post-emergence, IPOHE

Structure (SMILES) | PRE Application ALOMY, percentage damage (five point scale) [1] | PRE Application SETFA, percentage damage (five point scale) (Setaria faberi (SETFA) [2]) | PRE Application ECHCG, percentage damage (five point scale) [3] | PRE Application SOLNI, percentage damage (five point scale) (Solanum nigrum (SOLNI) [4]) | PRE Application AMARE, percentage damage (five point scale) [5] | PRE Application IPOHE, percentage damage (five point scale) [6] | POST Application ALOMY, percentage damage (five point scale) [7] | POST Application SETFA, percentage damage (five point scale) (Setaria faberi (SETFA) [8]) | POST Application ECHCG, percentage damage (five point scale) [9] | POST Application SOLNI, percentage damage (five point scale) (Solanum nigrum (SOLNI) [10]) | POST Application AMARE, percentage damage (five point scale) [11] | POST Application IPOHE, percentage damage (five point scale) [12]
Cn1nnnc1NC(=O)c1nn(C)c(=O)n(Cc2ccccc2Cl)c1=O [Compound 1.059] | 5 (5=80-100%) | 2 (2=20-39%) | 5 (5=80-100%) | 5 (5=80-100%) | 5 (5=80-100%) | 5 (5=80-100%) | 5 (5=80-100%) | 4 (4=60-79%) | 4 (4=60-79%) | 5 (5=80-100%) | 5 (5=80-100%) | 5 (5=80-100%)
Cn1nnnc1NC(=O)c1nn(C)c(=O)n(-c2ccccc2)c1=O [Compound 1.002] | 5 (5=80-100%) | 5 (5=80-100%) | 5 (5=80-100%) | 5 (5=80-100%) | 5 (5=80-100%) | 5 (5=80-100%) | 5 (5=80-100%) | 5 (5=80-100%) | 5 (5=80-100%) | 5 (5=80-100%) | 5 (5=80-100%) | 5 (5=80-100%)
CCCn1nnnc1NC(=O)c1nn(C)c(=O)n(-c2ccc(F)cc2)c1=O [Compound 1.049] | 5 (5=80-100%) | 5 (5=80-100%) | 5 (5=80-100%) | 5 (5=80-100%) | 5 (5=80-100%) | 5 (5=80-100%) | 5 (5=80-100%) | 5 (5=80-100%) | 5 (5=80-100%) | 5 (5=80-100%) | 5 (5=80-100%) | 5 (5=80-100%)
CSc1cccc(-n2c(=O)c(C(=O)Nc3nnnn3C)nn(C)c2=O)c1 [Compound 1.043] | 4 (4=60-79%) | 2 (2=20-39%) | 5 (5=80-100%) | 5 (5=80-100%) | 5 (5=80-100%) | 5 (5=80-100%) | 5 (5=80-100%) | 4 (4=60-79%) | 5 (5=80-100%) | 5 (5=80-100%) | 5 (5=80-100%) | 5 (5=80-100%)
COc1cc(-n2c(=O)c(C(=O)Nc3nnnn3C)nn(C)c2=O)ccc1F [Compound 1.048] | 5 (5=80-100%) | 5 (5=80-100%) | 5 (5=80-100%) | 5 (5=80-100%) | 5 (5=80-100%) | 5 (5=80-100%) | 5 (5=80-100%) | 5 (5=80-100%) | 5 (5=80-100%) | 5 (5=80-100%) | 5 (5=80-100%) | 5 (5=80-100%)
Cn1nnnc1NC(=O)c1nn(C)c(=O)n(Cc2cc(Cl)nc(Cl)c2)c1=O [Compound 1.085] | 5 (5=80-100%) | 2 (2=20-39%) | 5 (5=80-100%) | 5 (5=80-100%) | 5 (5=80-100%) | 5 (5=80-100%) | 5 (5=80-100%) | 2 (2=20-39%) | 5 (5=80-100%) | 5 (5=80-100%) | 5 (5=80-100%) | 5 (5=80-100%)
Cn1nnnc1NC(=O)c1nn(C)c(=O)n(Cc2ccccc2)c1=O [Compound 1.022] | 5 (5=80-100%) | 3 (3=40-59%) | 5 (5=80-100%) | 5 (5=80-100%) | 5 (5=80-100%) | 4 (4=60-79%) | 4 (4=60-79%) | 4 (4=60-79%) | 5 (5=80-100%) | 5 (5=80-100%) | 5 (5=80-100%) | 5 (5=80-100%)
Cn1nnnc1NC(=O)c1nn(C)c(=O)n(CCCC(F)(F)F)c1=O [Compound 1.090] | 5 (5=80-100%) | 5 (5=80-100%) | 5 (5=80-100%) | 5 (5=80-100%) | 5 (5=80-100%) | 5 (5=80-100%) | 5 (5=80-100%) | 5 (5=80-100%) | 5 (5=80-100%) | 5 (5=80-100%) | 5 (5=80-100%) | 5 (5=80-100%)
